According to patent publication US20090209620A1, “Direct Reversal Of The Suppressive Function Of CD4+Regulatory T Cells Via Toll-Like Receptor 8 Signaling” (priority 2005, published 2009):
Entries after “also recorded” stand apart in the source; their conditions may differ. In the oligonucleotide strings, read from the 5' end, every base follows the letter of its sugar. An asterisk marks phosphorothioate; unmarked linkages are phosphodiester. Other units and linkages are bracketed, terminal groups are in braces. A string of capitals states the bases alone. d = 2'-deoxy (DNA)

These compounds were tested on CD4+ Treg cells (Treg102, Treg164) (assay: Proliferation assay without DCs: Treg suppression of naive CD4+ T cell proliferation, anti-CD3-coated plates). Details: absence of DCs; anti-CD3-coated plates; oligonucleotides 3 ug/ml in medium.
Type: cell-based, human
From the text: Establishing Treg cell lines and purifying natural CD4^+ CD25^+ Treg cells CD4^+ Treg clones were established from CD4^+ tumor-infiltrating lymphocytes (TIL102 and TIL164) and maintained in RPMI 1640 medium containing 10% human AB serum and recombinant IL-2 (300 IU/ml) using methods well known in the art (See, e.g., H. Y. Wang et al., Immunity 20, 107-118 (2004)). Treg clones derived from TIL102 or TIL164 cells were pooled and designated Treg102 or Treg164. Naturally occurring CD4^+ CD25^+ Treg cells were obtained by sorting CD4^+ T cell populations from fresh PBMCs after staining with anti-CD4 and anti-CD25 antibodies. To obtain optimal expansion, the OKT3 expansion method was performed using methods well known in the art (See, e.g., H. Y. Wang et al., Immunity 20, 107-118 (2004)). T cell clones were maintained at a low IL-2 concentration (300 IU/ml). Melanoma cell lines and EBV-transformed B-cell lines used in this study were cultured in RPMI 1640 medium containing 10% FCS. Human embryonic kidney (HEK) 293 and Epstein-Barr virus (EBV)-transformed B cell lines were maintained in RPMI 1640 with 10% fetal calf serum (FCS).
B. Proliferation assay without DCs: 1×10^5 näive CD4 T cells were cultured with regulatory T cells at different ratios (1: 0.2, 1:0.1 and 1:0.05) in anti-CD3 mAb-coated (2 ug/ml) 96-well plates in the presence or absence of the following TLR ligands or cytokines: CpG-A (3 ug/ml), CpG-B (3 ug/ml), LPS (100 ng/ml), TNF.-α (20 ng/ml), IFN-α (100 ng/ml), or IL-6 (100 ng/ml). After 56 h of culture, [3H]thymidine was added at a final concentration of 1 uCi/well, followed by an additional 16 h of culture. The incorporation of [^3H]thymidine was measured with a liquid scintillation counter.
Näive CD4^+ T cell proliferation experiments were performed similar to those in FIG. 1A, but in the absence of DCs. […] The reversal effect of CpG-A (SEQ ID NO: 1) contrasts with the failure of CpG-B (SEQ ID NO: 2), LPS, TNF-α, IL-6 or IFN-α to block the suppressive activity of CD4^+ Treg cells against naive CD4^+ T cells (FIG. 1B).
To further define the CpG-A (SEQ ID NO: 1) sequences responsible for the observed reversal effect, CpG-NG (SEQ ID NO: 5) and Poly-G10 (SEQ ID NO: 6), were tested for their ability to reverse the suppressive function of Treg cells. Naive CD4^+ T cells were mixed with CD4^+ Treg cells in anti-CD3 antibody-coated 96-wells with 200 μl of medium containing CpG-NG (SEQ ID NO: 5), CpG-A (SEQ ID NO: 1) or Poly-G10 (SEQ ID NO: 6). The proliferation assay was conducted as described in FIG. 1. […] For the experiments shown in FIG. 2B, naive CD4^+ T cells were mixed with CD4^+ Treg cells in anti-CD3 antibody-coated 96-wells with 200 μl of medium containing Poly-A10 (SEQ ID NO: 7), Poly-T10 (SEQ ID NO: 9) or Poly-C10 (SEQ ID NO: 8), while the Poly-G10 (SEQ ID NO: 6) oligonucleotides served as a positive control.
A series of oligonucleotides with decreasing numbers of guanosine nucleosides was constructed to determine the minimal number required for the reversal effect. For the experiments in FIG. 2C, CD4^+ T cells were mixed with CD4^+ Treg cells in anti-CD3 antibody-coated 96-wells containing medium with protected phosphorothioate linked guanosine nucleoside containing oligonucleotides of various lengths, while the unprotected five guanosines (SEQ ID NO: 10) served as a control.

Compound | reversal of Treg cell-mediated suppression of naive CD4+ T cell proliferation
Poly-A10: Poly-A oligonucleotide with the same protected phosphorothioate backbone (DNA dA*dA*dA*dA*dA*dA*dA*dA*dA*dA) | failed to reverse the suppressive function of Treg cells; also recorded: lacked the ability to reverse the suppressive activity of Treg cells
CpG-NG: oligonucleotide derived from CpG-A, tested to define the sequences responsible for reversal (DNA AAAAGACGATCGTCAAAAAA; listed as DNA, chemistry not given here) | Treg suppression reversal was lost
C4G1: a single guanosine plus other nucleotides with protected phosphorothioate linkages (DNA dC*dC*dG*dC*dC) | found to reverse the suppressive activity of Treg cells
A4G1: a single guanosine plus other nucleotides with protected phosphorothioate linkages (DNA dA*dA*dG*dA*dA) | found to reverse the suppressive activity of Treg cells
G5: unprotected five guanosines with a regular phosphodiester backbone (DNA GGGGG; unmodified DNA) | failed to reverse the suppressive activity of Treg cells
T4G1: a single guanosine plus other nucleotides with protected phosphorothioate linkages (DNA dT*dT*dG*dT*dT) | found to reverse the suppressive activity of Treg cells
TNF-α | failure
Poly-C10: Poly-C oligonucleotide with the same protected phosphorothioate backbone (DNA dC*dC*dC*dC*dC*dC*dC*dC*dC*dC) | failed to reverse the suppressive function of Treg cells; also recorded: lacked the ability to reverse the suppressive activity of Treg cells
CpG-B: CpG-B oligonucleotide, ligand for TLR9 (DNA GGGGGAGCATGCTGCGGGGG; listed as DNA, chemistry not given here) | failure

What follows are compounds tested on CD4+ Treg cells (assay: Pretreatment of Treg cells, then proliferation assay with naive CD4+ T cells (without DCs)). Details: Treg cells pretreated 3 days, washed, then mixed with naive CD4+ T cells.
Type: cell-based, human
Protocol: C. Pretreatment of Treg cells: 1×10^6 Treg cells were cultured in medium containing CpG-A (3 ug/ml), CpG-B (3 ug/ml), LPS (100 ng/ml), TNF.-α (20 ng/ml), IFN-α (100 ng/ml) or IL-6 (100 ng/ml) for 3 days. After three washes, the pretreated Treg cells were cultured with näive CD4^+ T cells in anti-CD3 mAb-coated plates (without DCs) to determine their suppressive function. After 56 h of culture, [3H]thymidine was added at a final concentration of 1 uCi/well, and cultured for an additional 16 h. The incorporation of [^3H]thymidine was measured with a liquid scintillation counter.
To exclude the possibility that the purified naive CD4^+ T cells might have been contaminated with a small number of monocytes or DCs, cultured CD4^+ Treg cells (100% purity) were pretreated with CpG-A (SEQ ID NO: 1) for 3 days. After three washes, the pretreated CD4^+ Treg cells were mixed with naive CD4^+ T cells in anti-CD3 antibody-coated plates to evaluate their ability to suppress the proliferation of naive CD4^+ T cells.
To determine whether the CpG motif in CpG A confers the ability to reverse the suppressive function of CD4^+ Treg cells, CD4^+ Treg cell lines were pretreated for 3 days with CpG-A (SEQ ID NO: 1), non-CpG-A (CG changed to GC in CpG-A; SEQ ID NO: 3), CpG B (SEQ ID NO: 2) or non-CpG-B (CG changed to GC in CpG-B; SEQ ID NO: 4), and used them in proliferation assays following extensive washes.
Treg cells were pretreated with Poly-G2 (SEQ ID NO: 15) in different concentrations of chloroquine to examine whether acidification is required for the function of guanosine containing oligonucleotides. After extensive washes, the pretreated Treg cells were used for functional assays.

Compound | reversal of suppressive function of CD4+ Treg cells after pretreatment
non-CpG-B: CG changed to GC in CpG-B (DNA TGCTGCTTTTGTGCTTTTGTGCTT; listed as DNA, chemistry not given here) | lacked any discernible effect
CpG-B: CpG-B oligonucleotide, ligand for TLR9 (DNA GGGGGAGCATGCTGCGGGGG; listed as DNA, chemistry not given here) | lacked any discernible effect

Same assay, conditions: pretreatment together with chloroquine

Compound | reversal effect with Treg cells pretreated in different concentrations of chloroquine
Poly-G2: guanosine containing oligonucleotide (DNA AAGGA; listed as DNA, chemistry not given here) | decreased with increasing concentrations of chloroquine

The compounds below were run on antigen-specific Treg102 and Treg164 cells (assay: TLR ligand assays: reversal of Treg suppression of naive CD4+ T cell proliferation). Details: Treg102, Treg164 or naturally occurring CD4+CD25+ Treg cells (FIG. 4A-B).
Type: cell-based, human
Protocol: Näive CD4 T+cells were purified from PBMCs by using microbeads (Miltenvi Biotec). Näive CD4^+ T cells ([…]) were cultured with regulatory T cells at a ratio of 10:1 in OKT3 (2 ug/ml)-coated, U bottomed 96-well plates containing the following ligands: LPS (100 ng/ml), imiquimod (10 μg/ml), loxoribine (500 μM), poly(I:C) (25 μg/ml), ssRNA40/LyoVec (3 μg/ml), ssRNA33/LyoVec (3 μg/ml), pam3CSK4 (200 ng/ml) and flagellin (10 μg/ml) were purchased from Invivogene (San Diego, Calif.), while CpG-A (3 μg/ml), CpG-B (3 μg/ml) and Poly-G oligonucleotides (3 μg/ml) were synthesized in Integrated DNA Technologies, Inc (Coralville, Iowa). Functional assays were identical to those described above.
If the TLR8-MyD88-IRAK4 signaling pathway is necessary and sufficient for direct reversal of the suppressive function of Treg cells, it should be possible to produce that effect with natural ligands for human TLR8. For FIG. 4A-B, naive CD4^+ T cells were mixed with Treg102, Treg164 or naturally occurring CD4^+ CD25^+ Treg cells in anti-CD3 antibody-coated wells in the presence of different TLR ligands. Data are presented as means±SD and represent results from three independent experiments.

Compound | restoration of proliferation of naive CD4+ T cells in the presence of Treg cells
flagellin | failed to restore the proliferation of naive CD4^+ T cells
C=CCn1c(=O)n([C@@H]2O[C@H](CO)[C@@H](O)[C@H]2O)c2nc(N)[nH]c(=O)c21 [loxoribine] | failed to restore the proliferation of naive CD4^+ T cells
poly(I:C) | failed to restore the proliferation of naive CD4^+ T cells
CpG-B: CpG-B oligonucleotide, ligand for TLR9 (DNA GGGGGAGCATGCTGCGGGGG; listed as DNA, chemistry not given here) | failed to restore the proliferation of naive CD4^+ T cells
